In one experiment the test system is human myoblast cells. Kind of experiment: Human myoblast differentiation (% area eMyHC) with IGF2 and/or sodium butyrate. Type of experiment: cell-based. How it is done: Fresh media was added every 24 hours. […], cells were pulsed for 2-5 hours with EdU (30 uM), ethanol fixed, stained with Hoescht 3342, immunostained for proliferation—as measured by the percent of cells staining positive for EdU (% EdU)-, and immunostained for differentiation—as measured by the increase in cellular area staining positive for embryonic myosin heavy chain (% eMyHC) relative to the negative controls, which received media and vehicle only. The total area of eMyHc positive cells was analyzed, and treated cells were compared to cells treated with the vehicle alone. […] Significance was determined by a p-value less than 0.05 by the one-way ANOVA Tukey Honest Significant Difference test.
Myoblast were cultured 96 h in the presence of IGF2 at indicated dose. Fresh media and IGF2 was added every 24 h.
Fresh media was added every 24 hours.
Significance was determined by a p-value less than 0.05 by the one-way ANOVA Tukey Honest Significant Difference test.

A further experiment deals with DM1 human myoblast cells. Kind of experiment: Proliferation (EdU) and fusion (% eMyHC area) in DM1 human myoblast. Type of experiment: cell-based. Particulars: 72 h for proliferation, fold change vs vehicle. How it is done: FIG. 7A Bar graph of % EdU+ human myoblast (person) and FIG. 7B % area MyHC in response to IGF2. Myoblast were cultured 72 h for proliferation and 96 h for fusion in the presence of indicated factor. Mean∓S.D. Mean∓SD. Significant p-values (EdU: Vehicle˜IGF2: 6.8E-3, % eMyHC Area: Vehicle˜IGF2: 1.9E-4) (*p<0.05 by Students Two-Tailed T-test, n=3-6).
IGF2 was tested individually for its ability to promote proliferation and/or fusion of human muscle progenitor cells from an individual with myotonic dystrophy type 1 (hMD)—a muscular dystrophy caused by mutations in the DMPK1 gene. […] After 72 or 96 hours, cells were pulsed for 2-5 hours with EdU (30 uM), ethanol fixed, stained with Hoescht 3342, immunostained for proliferation—as measured by the percent of cells staining positive for EdU (% EdU)-, and immunostained for differentiation—as measured by the increase in cellular area staining positive for embryonic myosin heavy chain (% eMyHC) relative to the negative controls, which received media and vehicle only. Wells were imaged on a Keyence BZ-100 at 4×, the images quantified in Cell Profiler, and the statistics were computed in R. Additionally, RNA was extracted from myoblast and select transcript abundances quantified by qPCR. […]

As to “IGF2: Human IGF2 amino acid sequence, SEQ ID NO: 29”, the “% eMyHC” value with human myoblast cells (IGF2 0.015 ug/mL alone, 96 h (FIG. 3B/3C)) is 10.843%; in the experiment with human myoblast cells (IGF2 0.03 ug/mL alone, 48 hours (FIG. 4A/4B)), 16.620%. For the same substance, the “EdU FC” value with DM1 human myoblast cells worked out at 2.18.

The values above are taken from patent US12329801B2, “Regenerative polypeptides and uses thereof” (JUVENA THERAPEUTICS, INC., priority 2021, dated 2025).
